Measurements published in article PMC7211198, “Phase 1b study of a small molecule antagonist of human chemokine (C-C motif) receptor 2 (PF-04136309) in combination with nab-paclitaxel/gemcitabine in first-line treatment of metastatic pancreatic ductal adenocarcinoma” (Investigational New Drugs, 2019).

Assay: Safety and tolerability (TEAEs, SAEs, DLTs, RP2D) in phase Ib study
Assay type: in vivo, human
Conditions: 500 mg BID + nab-P/Gem
Excerpt: Safety assessments included collection of adverse events (AEs), serious AEs (SAEs), vital signs and physical examination, electrocardiogram (12-lead), laboratory assessments, including pregnancy test, and verification of concomitant treatments. A patient was considered as DLT-evaluable if the patient experienced a DLT or if otherwise, in the absence of a DLT, the patient received at least 85% of the planned doses of each study drug in the first 28-day cycle. DLTs were defined as any of the following events occurring in the first cycle of treatment (days 1 through 28) and attributed (i.e., judged to be at least possibly related) to the combination of PF-04136309 plus nab-paclitaxel/gemcitabine, where relationship with the combination could not be ruled out. DLTs were hematologic events of grade 4 neutropenia lasting >5 days; febrile neutropenia; grade ≥ 3 neutropenic infection; grade ≥ 3 thrombocytopenia with grade ≥ 2 bleeding; grade 4 thrombocytopenia; and nonhematologic events of grade 3 toxicities. Exceptions included nausea and vomiting responding to prophylaxis and/or treatment and lasting <7 days from each chemotherapy infusion period; diarrhea responding to treatment and lasting <7 days; grade 3 fatigue lasting <7 days; grade 3 QT interval corrected for heart rate prolongation (>500 msec) persisting after correction of any reversible causes; and/or grade 3 aspartate aminotransferase (AST) and/or alanine aminotransferase (ALT) increase lasting ≤7 days. All grade 4 toxicities and a delay of >2 weeks in receiving the next scheduled cycle due to persistent treatment-related toxicities were considered DLTs. AEs meeting DLT criteria in the dose-expansion phase included grade 3 events of diarrhea, hypokalemia, and dysesthesia and grade 4 hypoxia. […] AEs were graded according to the National Cancer Institute Common Terminology Criteria for Adverse Events, version 4.03.

## O=C(NCC(=O)N1CC[C@H](N[C@H]2CC[C@@](O)(c3ccc(-c4ncccn4)cn3)CC2)C1)c1cccc(C(F)(F)F)c1 [PF-04136309]
N = 17, first cycle (days 1 through 28)
  DLT: 3 (17.6) n (%)
N = 17, treatment-related TEAE
  ALT increase, grade ≥3: 3 (17.6) n (%)
  AST increase, grade ≥3: 3 (17.6) n (%)
  Anemia, grade ≥3: 4 (23.5) n (%)
  Fatigue, grade ≥3: 4 (23.5) n (%)
  Leukopenia, grade ≥3: 2 (11.8) n (%)
  Lymphopenia, grade ≥3: 4 (23.5) n (%)
  Neutropenia, grade ≥3: 2 (11.8) n (%)
all-causality SAE
  Abdominal pain, Grade 1: 0 n (%)
  Abdominal pain, Grade 2: 0 n (%)
  Abdominal pain, Grade 3: 2 (11.8) n (%)
  Abdominal pain, Grade 4: 0 n (%)
  Abdominal pain, Grade 5: 0 n (%)
  Abdominal pain, Total: 2 (11.8) n (%)
  Any SAE, Grade 1: 1 (5.9) n (%)
  Any SAE, Grade 2: 1 (5.9) n (%)
  Any SAE, Grade 3: 7 (41.2) n (%)
  Any SAE, Grade 4: 1 (5.9) n (%)
  Any SAE, Grade 5: 1 (5.9) n (%)
  Any SAE, Total: 11 (64.7) n (%)
  Chest pain, Grade 1: 0 n (%)
  Chest pain, Grade 2: 0 n (%)
  Chest pain, Grade 3: 1 (5.9) n (%)
  Chest pain, Grade 4: 0 n (%)
  Chest pain, Grade 5: 0 n (%)
  Chest pain, Total: 1 (5.9) n (%)
  Dyspnea, Grade 1: 0 n (%)
  Dyspnea, Grade 2: 0 n (%)
  Dyspnea, Grade 3: 1 (5.9) n (%)
  Dyspnea, Grade 4: 0 n (%)
  Dyspnea, Grade 5: 0 n (%)
  Dyspnea, Total: 1 (5.9) n (%)
  Episcleritis, Grade 1: 0 n (%)
  Episcleritis, Grade 2: 1 (5.9) n (%)
  Episcleritis, Grade 3: 0 n (%)
  Episcleritis, Grade 4: 0 n (%)
  Episcleritis, Grade 5: 0 n (%)
  Episcleritis, Total: 1 (5.9) n (%)
  Hypoxia, Grade 1: 0 n (%)
  Hypoxia, Grade 2: 0 n (%)
  Hypoxia, Grade 3: 0 n (%)
  Hypoxia, Grade 4: 1 (5.9) n (%)
  Hypoxia, Grade 5: 0 n (%)
  Hypoxia, Total: 1 (5.9) n (%)
  Klebsiella bacteremia, Grade 1: 0 n (%)
  Klebsiella bacteremia, Grade 2: 0 n (%)
  Klebsiella bacteremia, Grade 3: 1 (5.9) n (%)
  Klebsiella bacteremia, Grade 4: 0 n (%)
  Klebsiella bacteremia, Grade 5: 0 n (%)
  Klebsiella bacteremia, Total: 1 (5.9) n (%)
  Liver abscess, Grade 1: 0 n (%)
  Liver abscess, Grade 2: 0 n (%)
  Liver abscess, Grade 3: 1 (5.9) n (%)
  Liver abscess, Grade 4: 0 n (%)
  Liver abscess, Grade 5: 0 n (%)
  Liver abscess, Total: 1 (5.9) n (%)
  Musculoskeletal pain, Grade 1: 0 n (%)
  Musculoskeletal pain, Grade 2: 0 n (%)
  Musculoskeletal pain, Grade 3: 1 (5.9) n (%)
  Musculoskeletal pain, Grade 4: 0 n (%)
  Musculoskeletal pain, Grade 5: 0 n (%)
  Musculoskeletal pain, Total: 1 (5.9) n (%)
  Neck pain, Grade 1: 0 n (%)
  Neck pain, Grade 2: 0 n (%)
  Neck pain, Grade 3: 1 (5.9) n (%)
  Neck pain, Grade 4: 0 n (%)
  Neck pain, Grade 5: 0 n (%)
  Neck pain, Total: 1 (5.9) n (%)
  Pneumonia, Grade 1: 0 n (%)
  Pneumonia, Grade 2: 0 n (%)
  Pneumonia, Grade 3: 0 n (%)
  Pneumonia, Grade 4: 0 n (%)
  Pneumonia, Grade 5: 1 (5.9) n (%)
  Pneumonia, Total: 1 (5.9) n (%)
  Pneumonitis, Grade 1: 0 n (%)
  Pneumonitis, Grade 2: 0 n (%)
  Pneumonitis, Grade 3: 3 (17.6) n (%)
  Pneumonitis, Grade 4: 0 n (%)
  Pneumonitis, Grade 5: 0 n (%)
  Pneumonitis, Total: 3 (17.6) n (%)
  Pyrexia, Grade 1: 1 (5.9) n (%)
  Pyrexia, Grade 2: 1 (5.9) n (%)
  Pyrexia, Grade 3: 0 n (%)
  Pyrexia, Grade 4: 0 n (%)
  Pyrexia, Grade 5: 0 n (%)
  Pyrexia, Total: 2 (11.8) n (%)
  Small intestinal obstruction, Grade 1: 0 n (%)
  Small intestinal obstruction, Grade 2: 0 n (%)
  Small intestinal obstruction, Grade 3: 1 (5.9) n (%)
  Small intestinal obstruction, Grade 4: 0 n (%)
  Small intestinal obstruction, Grade 5: 0 n (%)
  Small intestinal obstruction, Total: 1 (5.9) n (%)
all-causality TEAE
  ALT increase, Grade 1: 1 (5.9) n (%)
  ALT increase, Grade 2: 2 (11.8) n (%)
  ALT increase, Grade 3: 3 (17.6) n (%)
  ALT increase, Grade 4: 1 (5.9) n (%)
  ALT increase, Grade 5: 0 n (%)
  ALT increase, Total: 7 (41.2) n (%)
  AST increase, Grade 1: 0 n (%)
  AST increase, Grade 2: 1 (5.9) n (%)
  AST increase, Grade 3: 5 (29.4) n (%)
  AST increase, Grade 4: 0 n (%)
  AST increase, Grade 5: 0 n (%)
  AST increase, Total: 6 (35.3) n (%)
  Abdominal pain, Grade 1: 0 n (%)
  Abdominal pain, Grade 2: 3 (17.6) n (%)
  Abdominal pain, Grade 3: 3 (17.6) n (%)
  Abdominal pain, Grade 4: 0 n (%)
  Abdominal pain, Grade 5: 0 n (%)
  Abdominal pain, Total: 6 (35.3) n (%)
  Alopecia, Grade 1: 7 (41.2) n (%)
  Alopecia, Grade 2: 3 (17.6) n (%)
  Alopecia, Grade 3: 0 n (%)
  Alopecia, Grade 4: 0 n (%)
  Alopecia, Grade 5: 0 n (%)
  Alopecia, Total: 10 (58.8) n (%)
  Anemia, Grade 1: 2 (11.8) n (%)
  Anemia, Grade 2: 5 (29.4) n (%)
  Anemia, Grade 3: 4 (23.5) n (%)
  Anemia, Grade 4: 0 n (%)
  Anemia, Grade 5: 0 n (%)
  Anemia, Total: 11 (64.7) n (%)
  Any AE, Grade 1: 0 n (%)
  Any AE, Grade 2: 1 (5.9) n (%)
  Any AE, Grade 3: 12 (70.6) n (%)
  Any AE, Grade 4: 3 (17.6) n (%)
  Any AE, Grade 5: 1 (5.9) n (%)
  Any AE, Total: 17 (100.0) n (%)
  Appetite decrease, Grade 1: 5 (29.4) n (%)
  Appetite decrease, Grade 2: 0 n (%)
  Appetite decrease, Grade 3: 1 (5.9) n (%)
  Appetite decrease, Grade 4: 0 n (%)
  Appetite decrease, Grade 5: 0 n (%)
  Appetite decrease, Total: 6 (35.3) n (%)
  Blood alkaline phosphatase, Grade 1: 1 (5.9) n (%)
  Blood alkaline phosphatase, Grade 2: 4 (23.5) n (%)
  Blood alkaline phosphatase, Grade 3: 2 (11.8) n (%)
  Blood alkaline phosphatase, Grade 4: 0 n (%)
  Blood alkaline phosphatase, Grade 5: 0 n (%)
  Blood alkaline phosphatase, Total: 7 (41.2) n (%)
  Constipation, Grade 1: 5 (29.4) n (%)
  Constipation, Grade 2: 2 (11.8) n (%)
  Constipation, Grade 3: 0 n (%)
  Constipation, Grade 4: 0 n (%)
  Constipation, Grade 5: 0 n (%)
  Constipation, Total: 7 (41.2) n (%)
  Diarrhea, Grade 1: 4 (23.5) n (%)
  Diarrhea, Grade 2: 2 (11.8) n (%)
  Diarrhea, Grade 3: 1 (5.9) n (%)
  Diarrhea, Grade 4: 0 n (%)
  Diarrhea, Grade 5: 0 n (%)
  Diarrhea, Total: 7 (41.2) n (%)
  Edema, peripheral, Grade 1: 7 (41.2) n (%)
  Edema, peripheral, Grade 2: 1 (5.9) n (%)
  Edema, peripheral, Grade 3: 0 n (%)
  Edema, peripheral, Grade 4: 0 n (%)
  Edema, peripheral, Grade 5: 0 n (%)
  Edema, peripheral, Total: 8 (47.1) n (%)
  Fatigue, Grade 1: 4 (23.5) n (%)
  Fatigue, Grade 2: 4 (23.5) n (%)
  Fatigue, Grade 3: 5 (29.4) n (%)
  Fatigue, Grade 4: 0 n (%)
  Fatigue, Grade 5: 0 n (%)
  Fatigue, Total: 13 (76.5) n (%)
  Headache, Grade 1: 4 (23.5) n (%)
  Headache, Grade 2: 1 (5.9) n (%)
  Headache, Grade 3: 0 n (%)
  Headache, Grade 4: 0 n (%)
  Headache, Grade 5: 0 n (%)
  Headache, Total: 5 (29.4) n (%)
  Hyperglycemia, Grade 1: 2 (11.8) n (%)
  Hyperglycemia, Grade 2: 3 (17.6) n (%)
  Hyperglycemia, Grade 3: 3 (17.6) n (%)
  Hyperglycemia, Grade 4: 0 n (%)
  Hyperglycemia, Grade 5: 0 n (%)
  Hyperglycemia, Total: 8 (47.1) n (%)
  Insomnia, Grade 1: 7 (41.2) n (%)
  Insomnia, Grade 2: 1 (5.9) n (%)
  Insomnia, Grade 3: 0 n (%)
  Insomnia, Grade 4: 0 n (%)
  Insomnia, Grade 5: 0 n (%)
  Insomnia, Total: 8 (47.1) n (%)
  Lymphopenia, Grade 1: 0 n (%)
  Lymphopenia, Grade 2: 0 n (%)
  Lymphopenia, Grade 3: 5 (29.4) n (%)
  Lymphopenia, Grade 4: 0 n (%)
  Lymphopenia, Grade 5: 0 n (%)
  Lymphopenia, Total: 5 (29.4) n (%)
  Nausea, Grade 1: 12 (70.6) n (%)
  Nausea, Grade 2: 2 (11.8) n (%)
  Nausea, Grade 3: 0 n (%)
  Nausea, Grade 4: 0 n (%)
  Nausea, Grade 5: 0 n (%)
  Nausea, Total: 14 (82.4) n (%)
  Neuropathy peripheral, Grade 1: 8 (47.1) n (%)
  Neuropathy peripheral, Grade 2: 1 (5.9) n (%)
  Neuropathy peripheral, Grade 3: 0 n (%)
  Neuropathy peripheral, Grade 4: 0 n (%)
  Neuropathy peripheral, Grade 5: 0 n (%)
  Neuropathy peripheral, Total: 9 (52.9) n (%)
  Pyrexia, Grade 1: 7 (41.2) n (%)
  Pyrexia, Grade 2: 5 (29.4) n (%)
  Pyrexia, Grade 3: 0 n (%)
  Pyrexia, Grade 4: 0 n (%)
  Pyrexia, Grade 5: 0 n (%)
  Pyrexia, Total: 12 (70.6) n (%)
  Rash, Grade 1: 7 (41.2) n (%)
  Rash, Grade 2: 1 (5.9) n (%)
  Rash, Grade 3: 0 n (%)
  Rash, Grade 4: 0 n (%)
  Rash, Grade 5: 0 n (%)
  Rash, Total: 8 (47.1) n (%)
  Vomiting, Grade 1: 6 (35.3) n (%)
  Vomiting, Grade 2: 1 (5.9) n (%)
  Vomiting, Grade 3: 0 n (%)
  Vomiting, Grade 4: 0 n (%)
  Vomiting, Grade 5: 0 n (%)
  Vomiting, Total: 7 (41.2) n (%)
  Weight decreased, Grade 1: 5 (29.4) n (%)
  Weight decreased, Grade 2: 4 (23.5) n (%)
  Weight decreased, Grade 3: 0 n (%)
  Weight decreased, Grade 4: 0 n (%)
  Weight decreased, Grade 5: 0 n (%)
  Weight decreased, Total: 9 (52.9) n (%)
treatment-related SAE
  Any SAE, Grade 1: 0 n (%)
  Any SAE, Grade 2: 0 n (%)
